According to patent US20090117203A1, “KIT FOR CANCER TREATMENT AND PHARMACEUTICAL COMPOSITION FOR CANCER TREATMENT” (TMRC Co., Ltd., priority 2006, published 2009):

What was measured:
human liver cancer JHH-7 = assay: Growth suppression of human liver cancer JHH-7 transplanted in nude mice; type: in vivo; conditions: for tumor volume: nude mice, TM-411 3 mg/kg oral daily 20 days, 5-FU 15.2 mg/kg oral 8th to 12th day; for effect on suppression of the growth of the tumor (in words): nude mice transplanted with JHH-7, same doses as Table 2
Description: Fluorouracil (hereinafter, abbreviated to “5-FU”), which is a general name of that manufactured by Kyowa Hakko Kogyo Co., Ltd., was used as a chemotherapeutic agent.
A tumor cell mass of human liver cancer JHH-7 was subcutaneously transplanted in dorsal portions of 6-week-old BALB/cAJcl-nu nude mice through a trocar. When the tumor volume reached 100 to 300 mm^3, the administration was started. TM-411 was orally administered once a day at a dose of 3 mg/kg for 20 days every day. 5-FU was orally administered at a dose of 15.2 mg/kg for 5 days every day from the 8th day to the 12th day.
(§1) In a combination use group of TM-411 and 5-FU, each agent was administered at the same amount and the same administration route as those in the single administration. Tumor diameters were measured every day from the day of the start of the administration (the 1st day) to the next day of the completion of the administration (the 21st day), and effect on suppression of the growth was investigated. […] In a control group, physiological saline was administered at the same amount and the same administration route as those in the single administration of each agent.

human liver cancer HePG2 = assay: Growth suppression of human liver cancer HePG2 transplanted in nude mice; type: in vivo; conditions: for tumor volume: nude mice, TM-411 1 mg/kg oral daily 20 days, ADR 5 mg/kg i.v. once on first day; for effect on suppression of the growth of the tumor (in words): nude mice transplanted with HePG2, same doses as Table 3
Description: Doxorubicin (hereinafter, abbreviated to “ADR”), which is a general name of that manufactured by Kyowa Hakko Kogyo Co., Ltd., was used as a chemotherapeutic agent.
About 2×2×2 mm of a tumor cell mass of human liver cancer HePG2 was subcutaneously transplanted in dorsal portions of 6-week-old BALB/cAJcl-nu nude mice through a trocar. The administration was started on the day (defined as the first day) two days after the transplantation. TM-411 was orally administered at a dose of 1 mg/kg for 20 days every day from the first day. ADR was intravenously administered at a dose of 5 mg/kg once on the first day.
as §1, with “ADR,” for “5-FU,”, “the” for “the next”, “20th” for “21st”

[1] = test system: human breast cancer Br-10; assay: Growth suppression of human breast cancer Br-10 transplanted in nude mice; type: in vivo, mouse; conditions: for tumor volume: nude mice, TM-411 1 mg/kg oral daily 28 days, DXL 7.5 mg/kg i.v. every 4 days three times; for effect on suppression of the growth of the tumor (in words): nude mice transplanted with Br-10, same doses as Table 1
Description: Tamibarotene (hereinafter, simply abbreviated to “TM-411”) was used as a synthetic retinoid and was also used in the following other Examples. Taxotere (hereinafter, abbreviated to “DXL”), which is a general name of that manufactured by sanofi-aventis K.K., was used as a chemotherapeutic agent.
A tumor cell mass of human breast cancer Br-10 was subcutaneously transplanted in dorsal portions of 6-week-old BALB/cAJcl-nu nude mice through a trocar. When the tumor volume reached 100 to 300 mm^3, the administration was started. TM-411 was orally administered once a day at a dose of 1 mg/kg for 28 days every day. DXL was intravenously administered from the first day at a dose of 7.5 mg/kg every 4 days three times.
as §1, with “DXL,” for “5-FU,”, “29th” for “21st”

[2] = test system: human multiple myeloma U266; assay: Blood human IgE in NOG mice transplanted with human multiple myeloma U266; type: in vivo; conditions: for effect on blood concentration of human IgE (in words): NOG mice transplanted with U266; for Blood IgE level / Suppression ratio (blood IgE): NOG mice, 6 weeks after transplantation of U266
Description: Prednisolone (hereinafter, abbreviated to “PSL”), which is a general name of that manufactured by Shionogi & Co., Ltd., was used as a chemotherapeutic agent.
Seven-week-old NOD/SCID/γc^null (NOG) mice were divided into five groups of ten mice each (nine mice only in a control group), and […] cells of multiple myeloma cell line U266 were transplanted to each mouse via tail vein injection (the 0th day). The first group was used as a non-treated control group; in the second group, 1 mg/kg of TM-411 was orally administered for 28 days from the first day; in the third group, 3 mg/kg of TM-411 was orally administered for 28 days from the first day; in the fourth group, 7.5 mg/kg of PSL was orally administered for 8 days from the 21st day; and in the fifth group, 1 mg/kg of TM-411 was orally administered for 28 days from the first day and 7.5 mg/kg of PSL was orally administered in addition to the TM-411 for 8 days from the 21st day. Blood concentration of human IgE was measured 6 weeks after the transplantation of U266.

[3] = PSL 7.5 mg/kg oral 8 days from 21st day

| SMILES | tumor volume (human liver cancer JHH-7; 1st day) | tumor volume (human liver cancer JHH-7; 4th day) | tumor volume (human liver cancer JHH-7; 7th day) | tumor volume (human liver cancer JHH-7; 11th day) | tumor volume (human liver cancer JHH-7; 14th day) | tumor volume (human liver cancer JHH-7; 18th day) | tumor volume (human liver cancer JHH-7; 21st day) | effect on suppression of the growth of the tumor (in words) (human liver cancer JHH-7) | tumor volume (human liver cancer HePG2; 3rd day) | tumor volume (human liver cancer HePG2; 7th day) | tumor volume (human liver cancer HePG2; 9th day) | tumor volume (human liver cancer HePG2; 11th day) | tumor volume (human liver cancer HePG2; 13th day) | tumor volume (human liver cancer HePG2; 15th day) | tumor volume (human liver cancer HePG2; 17th day) | tumor volume (human liver cancer HePG2; 20th day) | effect on suppression of the growth of the tumor (in words) (human liver cancer HePG2) | tumor volume ([1]; 1st day) | tumor volume ([1]; 5th day) | tumor volume ([1]; 8th day) | further results |
| --- | --- | --- | --- | --- | --- | --- | --- | --- | --- | --- | --- | --- | --- | --- | --- | --- | --- | --- | --- | --- | --- |
| O=c1[nH]cc(F)c(=O)[nH]1 [5-FU, Fluorouracil] | 126.6 mm^3 | 193.8 mm^3 | 291.6 mm^3 | 496.6 mm^3 | 697.5 mm^3 | 1071 mm^3 | 1408 mm^3 | suppressed | – | – | – | – | – | – | – | – | – | – | – | – | – |
| COc1cccc2c1C(=O)c1c(O)c3c(c(O)c1C2=O)C[C@@](O)(C(=O)CO)C[C@@H]3O[C@H]1C[C@H](N)[C@H](O)[C@H](C)O1 [ADR, Doxorubicin] | – | – | – | – | – | – | – | – | 4.0 mm^3 | 18.8 mm^3 | 45.5 mm^3 | 180.0 mm^3 | 410.5 mm^3 | 650 mm^3 | 842 mm^3 | 1000 mm^3 | suppressed the growth of the tumor | – | – | – | – |
| CC(=O)O[C@@]12CO[C@@H]1C[C@H](O)[C@@]1(C)C(=O)[C@H](O)C3=C(C)[C@@H](OC(=O)[C@H](O)[C@@H](NC(=O)OC(C)(C)C)c4ccccc4)C[C@@](O)([C@@H](OC(=O)c4ccccc4)[C@H]21)C3(C)C [DXL, Taxotere] | – | – | – | – | – | – | – | – | – | – | – | – | – | – | – | – | – | 138.9 mm^3 | 149.7 mm^3 | 132.6 mm^3 | tumor volume ([1]; 12th day): 93.9 mm^3; tumor volume ([1]; 15th day): 76.0 mm^3; tumor volume ([1]; 19th day): 70.1 mm^3; tumor volume ([1]; 22nd day): 59.3 mm^3; tumor volume ([1]; 25th day): 58.2 mm^3; tumor volume ([1]; 29th day): 62.3 mm^3; effect on suppression of the growth of the tumor (in words) [1]: significantly suppressed |
| C[C@]12C=CC(=O)C=C1CC[C@@H]1[C@@H]2[C@@H](O)C[C@@]2(C)[C@H]1CC[C@]2(O)C(=O)CO [PSL, Prednisolone] | – | – | – | – | – | – | – | – | – | – | – | – | – | – | – | – | – | – | – | – | effect on blood concentration of human IgE (in words) [2]: decreased; Blood IgE level [2, 3]: 2204 ng/mL; Suppression ratio (blood IgE) [2, 3]: 18.2% |
| CC1(C)CCC(C)(C)c2cc(NC(=O)c3ccc(C(=O)O)cc3)ccc21 [TM-411, Tamibarotene] | 136.1 mm^3 | 169.8 mm^3 | 201.8 mm^3 | 312.7 mm^3 | 452.7 mm^3 | 953.1 mm^3 | 1097.4 mm^3 | suppressed | 15.8 mm^3 | 33.6 mm^3 | 171.5 mm^3 | 196 mm^3 | 256 mm^3 | 520 mm^3 | 600 mm^3 | 726 mm^3 | suppressed the growth of the tumor | 136.4 mm^3 | 173.6 mm^3 | 234.1 mm^3 | effect on blood concentration of human IgE (in words) [2]: decreased; Blood IgE level ([2]; TM-411 1 mg/kg oral 28 days): 2519 ng/mL; Suppression ratio (blood IgE) ([2]; TM-411 1 mg/kg oral 28 days): 6.5%; Blood IgE level ([2]; TM-411 3 mg/kg oral 28 days): 1755 ng/mL; Suppression ratio (blood IgE) ([2]; TM-411 3 mg/kg oral 28 days): 34.0%; tumor volume ([1]; 12th day): 317.5 mm^3; tumor volume ([1]; 15th day): 359.5 mm^3; tumor volume ([1]; 19th day): 429.9 mm^3; tumor volume ([1]; 22nd day): 451.7 mm^3; tumor volume ([1]; 25th day): 455.7 mm^3; tumor volume ([1]; 29th day): 476.5 mm^3; effect on suppression of the growth of the tumor (in words) [1]: significantly suppressed; tumor volume (human liver cancer HePG2; 5th day): 21.4 mm^3 |
